How the values were obtained:
LNCaP cells [1] = test: Docetaxel inhibition of LNCaP cell growth at different folate concentrations (cell count); assay type: cell-based, human; settings: 10 or 20 μg/ml docetaxel for 72 hours, cells counted after 1 week; FIG. 12
Method: Docetaxel (taxotere) at concentrations of 10 or 20 μg/ml was incubated with LNCaP cells for 72 hours and at different concentrations of folate supplied in the form of folic acid from culture medium. Cells were counted after 1 week. […] The open bar is the control without treatment with docetaxel, the speckled bars are cells treated with 10 ug/ml docetaxel together with the indicated concentration of folate, and the striped bars are cells treated with 20 ug/ml docetaxel together with the indicated concentration of folate. The indicated concentrations of folate are over and above the physiological level of folate provided by the folate present in fetal calf serum (for example, 12 nm folate represents 12 nm folate above the physiological concentration). […] It is likely that decreased folate availability to cancer cells would enhance the anti-tumor effect of other cytotoxic, cytostatic and hormonal.

prostate cancer = settings: patients after developing androgen-independence; taxane-based chemotherapy; cited from earlier work
LNCaP cells [2] = test: Effect of folic acid concentration on cell growth rate; assay type: cell-based, human; settings: folate level increased above physiological; FIG. 3
Description: Increasing the folate level above physiological can increase the growth rate by almost 2-fold. In cell lines that express PSMA (such as LNCaP), the same growth increase is also found if folate is provided in the form of ‘natural’ or dietary folate (e.g., polyglutamated folate) which is digested to monoglutamated folate by PSMA. The latter (monoglutamated folate) can cross the cell membrane whereas polyglutamated folate cannot. Anti-PSMA Antibody, J415, Inhibits PSMA tic Activity.

[3] = tested on: PSMA expression, Cwr22rv1; test: PSMA expression (J591 labeling, FACS) after three weeks in lowered-folate media; assay type: cell-based, human; settings: folate lowered to 10 nM, vs standard media, FIG. 9
Method: (§1) According to the World Health Organization, physiological level of serum folate is 12 nmol/L. Standard tissue culture media contains approx 150× the concentration of folate found in human serum/plasma. […] FIGS. 5-11 show the PSMA expression levels of different cell lines were grown for three weeks in standard media (containing 150× physiological concentration of folate; lines 2), standard media with only 50 nM folate, or standard media with only 10 nM folate. The cells were labeled with anti-PSMA antibody J591 followed by a fluorescently labeled secondary antibody that recognizes J591. Lines 1 show the cells labeled with a negative isotype control antibody followed by the labeled secondary antibody.

PSMA expression, LNCaP = test: as above; assay type: cell-based, human; settings: folate lowered in the media, FIG. 11
Method: as §1

PSMA expression, PC3 = test: as above; assay type: cell-based, human; settings: folate lowered to 50 nM or less, vs standard media, FIG. 10
Method: as §1

[4] = tested on: PSMA expression, SK-RC-06; test: as above; assay type: cell-based, human; settings: folate lowered to 50 nM or less, vs standard media, FIG. 8
Method: as §1

[5] = tested on: PSMA expression, SK-RC-31; test: as above; assay type: cell-based, human; settings: folate lowered to 10 nM, vs standard media, FIG. 5
Method: as §1

[6] = tested on: PSMA expression, SK-RC-39; test: as above; assay type: cell-based, human; settings: folate lowered to 10 nM, vs standard media, FIG. 7
Method: as §1

[7] = tested on: PSMA expression, SK-RC-42; test: as above; assay type: cell-based, human; settings: folate lowered to 10-50 nM, vs standard media, FIG. 6
Method: as §1

| Compound | Cell killing/inhibition of growth depending on folate level (in words) (LNCaP cells [1]) | Median survival (prostate cancer) [months] | Increase of growth rate (LNCaP cells [2]) [fold] | Increase in PSMA expression [3] [%] | Upregulation of PSMA expression (in words) (PSMA expression, LNCaP) | Increase in PSMA expression (PSMA expression, PC3) [%] | Increase in PSMA expression [4] [%] | Increase in PSMA expression [5] [%] | Increase in PSMA expression [6] [%] | Increase in PSMA expression [7] [%] |
| --- | --- | --- | --- | --- | --- | --- | --- | --- | --- | --- |
| CC(=O)O[C@@]12CO[C@@H]1C[C@H](O)[C@@]1(C)C(=O)[C@H](O)C3=C(C)[C@@H](OC(=O)[C@H](O)[C@@H](NC(=O)OC(C)(C)C)c4ccccc4)C[C@@](O)([C@@H](OC(=O)c4ccccc4)[C@H]21)C3(C)C [docetaxel] | decreasing folate levels increases the cell killing/inhibition of growth | 19 |  |  |  |  |  |  |  |  |
| Nc1nc2ncc(CNc3ccc(C(=O)N[C@@H](CCC(=O)O)C(=O)O)cc3)nc2c(=O)[nH]1 [folate, folic acid] |  |  | ~2 | 950 | did not cause upregulation of PSMA expression | 400 | 225 | 250 | 250 | 650 |

Source: patent publication US20250058000A1, “Treatment of Proliferative Disorders Using Antibodies to PSMA” (Cornell University, priority 2007, published 2025)
